Results on 13 molecules are retold here after patent US12195482B1 (Arcus Biosciences, Inc., priority 2022, dated 2025).

Structures are written as SMILES. pIC50: −log10 of the molar value.

By pIC50 is commonly meant the IC50 on a negative log10 scale, so that one unit is a factor of ten. Higher therefore signals a low IC50.

In experiment [1] the target is T1, p-AXL (Homo sapiens, UniProt P30530).
T1 construct: expressed in transfected cells; host or cells: HEK293T
T1 sequence (P30530 26-894): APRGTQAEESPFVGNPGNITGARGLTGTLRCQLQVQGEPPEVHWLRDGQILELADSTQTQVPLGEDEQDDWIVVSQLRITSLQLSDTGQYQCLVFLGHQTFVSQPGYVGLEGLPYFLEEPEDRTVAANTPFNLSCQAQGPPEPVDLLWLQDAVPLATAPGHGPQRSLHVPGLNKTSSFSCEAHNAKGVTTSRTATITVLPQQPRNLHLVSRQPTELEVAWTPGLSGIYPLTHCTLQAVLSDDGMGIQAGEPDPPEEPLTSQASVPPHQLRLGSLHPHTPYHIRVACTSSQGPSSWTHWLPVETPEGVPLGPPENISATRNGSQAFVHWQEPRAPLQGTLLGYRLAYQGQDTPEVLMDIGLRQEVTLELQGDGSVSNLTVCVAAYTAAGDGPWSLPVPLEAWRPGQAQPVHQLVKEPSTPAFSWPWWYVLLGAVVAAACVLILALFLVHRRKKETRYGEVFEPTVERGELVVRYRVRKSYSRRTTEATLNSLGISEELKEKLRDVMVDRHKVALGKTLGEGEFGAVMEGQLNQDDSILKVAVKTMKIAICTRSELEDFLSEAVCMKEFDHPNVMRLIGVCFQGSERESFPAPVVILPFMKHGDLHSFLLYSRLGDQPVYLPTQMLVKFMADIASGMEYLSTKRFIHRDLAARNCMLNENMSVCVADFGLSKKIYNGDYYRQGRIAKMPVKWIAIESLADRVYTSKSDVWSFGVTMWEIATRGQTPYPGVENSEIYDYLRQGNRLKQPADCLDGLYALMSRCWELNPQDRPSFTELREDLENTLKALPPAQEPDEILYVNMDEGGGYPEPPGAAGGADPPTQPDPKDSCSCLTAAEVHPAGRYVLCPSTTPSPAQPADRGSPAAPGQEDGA
As to the kind of experiment: Axl phosphorylation inhibition ELISA in HEK293T cells transfected with NanoLuc-tagged AXL. To be noted: 1 h compound incubation, media (OptiMEM). The format is cell-based. As to the method:
[formula] Measurement of Axl Phosphorylation Inhibition
The dose-response assays were performed in S-Bio PrimeSurface® 3D culture: Ultra-low Attachment Plates: 384 well, U bottom (#MS-9384UZ) containing 400 nL of 22 serial 2-fold compound dilutions using Bravo and Echo. ELISA assay was performed on Pierce™ streptavidin coated high capacity 384-well white plates (Thermofisher Cat #15505). The plates were coated overnight at 4° C. with 50 μl/well of biotinlyated phospho-tyrosine mouse mAb (Cell Signaling Technology, 9417s).
HEK293T cells were grown in DMEM containing 10% FBS, 1% Pen/Strep, 1% G-Max. A day before the assay, cells were transiently transfected with 6.8 μg of NanoLuc-tagged AXL plasmid DNA and 8 μg of carrier DNA using FuGENE® HD Transfection Reagent (Promega) according to manufacturer's instructions. On the day of the assay, transfected cells were harvested and resuspended in OptiMEM. 70,000 cells/well were added to the compounds containing assay plates. After a gentle mix and a short spin, the plates were incubated at 37° C. After 1 h, the cells were lysed followed by a brief centrifugation and 30 min of shaking at 300 rpm. Meanwhile, the antibody coated plates were brought to room temperature and then were washed ten times in PBS with 0.05% Tween 20 (ELISA-wash buffer). 50 μl/well of cell lysate was transferred to the ELISA plates and shaken for 2 hours. After washing again with the ELISA wash buffer, the samples were diluted with 25 μl of PBS. The captured NanoLuc tagged p-AXL was detected using Nano-Glo® Luciferase Assay System (Promega) and manufacturer's instruction. The luminescence signal was measured using Envision plate reader. IC50 values were determined by fitting the data to a standard 4-parameter logistic equation.
A general note: ELISA stands for enzyme-linked immunosorbent assay.

For experiment [2], the target named is T2, Axl (Homo sapiens, UniProt P30530).
T2 sequence (P30530 26-894): T1 sequence (P30530 26-894)
Description: Biochemical potency, HTRF KinEASE-TK kinase assay. Also noted: purchased Invitrogen. To be noted: 5 nM AXL, 700 μM ATP. The method, then:
Measurement of Biochemical Compound Potency of Axl Inhibitors
Purified recombinant human AXL, TYRO3 and MER proteins were purchased from Invitrogen™. 10 nM AXL, 2 nM TYRO3 or MER were incubated with varying concentrations of compounds in 50 mM HEPES, pH 7.4, 10 mM MgCl2, 0.01% BSA, 1 mM DTT and 2% DMSO in a total volume of 20 μl in a 384-well microplate (Corning™ #3640) at RT for 1 h. The AXL, TYRO3 and MER enzymatic reaction was initiated by transferring 10 μl of enzyme and compound mixture into 10 μl of 1.6 μM TK Substrate-biotin (HTRF® KinEASE-TK kit, Cisbio) and 1400 μM ATP pre-incubated in 50 mM HEPES, pH 7.4, 10 mM MgCl2, 0.01% BSA, 1 mM DTT in a 384-well microplate (Corning™ #3640) at RT, giving the final reaction conditions: 5 nM AXL, 1 nM TYRO3 or MER, 800 nM TK Substrate-biotin and 700 μM ATP in 50 mM HEPES, pH 7.4, 10 mM MgCl2, 0.01% BSA, 1 mM DTT and 1% DMSO with varying concentrations of compounds. Following 2 h incubation at RT, the AXL, TYRO3 and MER enzymatic reaction was stopped by transfer of 10 μl of reaction into 10 μl of detection mix (400 nM Streptavidin-XL665, 200-fold dilution TK Antibody-Cryptate and detection buffer, HTRF® KinEASE-TK kit, Cisbio) in a white 384-well microplate (Perkin Elmer, OptiPlate 384). After 1 h incubation at RT, the plate was put into a plate reader (Evision) to read at 665/620 nm (acceptor/donor) for HTRF. The value of the DMSO blank (MIN inhibition=100% activity) was used as a negative control. The positive control was established by adding 5 μl of enzyme and DMSO mixture into 10 μl of detection mix followed by addition of 5 μl of TK Substrate-biotin and ATP mixture (MAX inhibition=0% activity). To calculate the percent activity, Equation 1 was used. Ratio665/620 is the value at a given compound concentration: […]
In general terms: Time-resolved FRET reads energy transfer from a long-lived donor to a nearby acceptor.

With `Cn1ncnc1-c1ccc(-c2c[nH]c3ncc(-c4ccc5c(c4)CC[C@@H](N4C6COCC4C6)CC5)cc23)cc1` [Example 133, 6-[(7S)-2-{3-[4-(1-Methyl-1H-1,2,4-triazol-5-yl)phenyl]-1H-pyrrolo[2,3-b]pyridin-5-yl}-6,7,8,9-tetrahydro-5H-benzo[7]annulen-7-yl]-3-oxa-6-azabicyclo[3.1.1]heptane], the negative logarithm of the IC50 (pIC50) in experiment [1] and in experiment [2] was more than 7.00 throughout.

Regarding `Cc1cccnc1-c1cccc(-c2c[nH]c3ncc(-c4ccc5c(c4)CC[C@@H](N4C6COCC4C6)CC5)cc23)c1` [Example 82, 6-[(7S)-2-{3-[3-(3-Methylpyridin-2-yl)phenyl]-1H-pyrrolo[2,3-b]pyridin-5-yl}-6,7,8,9-tetrahydro-5H-benzo[7]annulen-7-yl]-3-oxa-6-azabicyclo[3.1.1]heptane], the pIC50 in experiment [1] and in experiment [2] was more than 7.00 each time.

In the case of `Cc1ccc(C)c(-c2ccc(-c3c[nH]c4ncc(-c5ccc6c(c5)CC[C@@H](N5C7COC[C@H]5C7)CC6)cc34)c(F)c2)n1` [Example 144, (1R)-6-[(7S)-2-{3-[4-(3,6-Dimethylpyridin-2-yl)-2-fluorophenyl]-1H-pyrrolo[2,3-b]pyridin-5-yl}-6,7,8,9-tetrahydro-5H-benzo[7]annulen-7-yl]-3-oxa-6-azabicyclo[3.1.1]heptane], the pIC50 in experiment [1] and in experiment [2] was more than 7.00 in each case.

For `Cc1cnc(-c2ccc(-c3n[nH]c4ncc(-c5ccc6c(c5)CC[C@@H](N5C7COCC5C7)CC6)cc34)cc2)c(C)n1` [Example 190, 6-[(7S)-2-{3-[4-(3,5-Dimethylpyrazin-2-yl)phenyl]-1H-pyrazolo[3,4-b]pyridin-5-yl}-6,7,8,9-tetrahydro-5H-benzo[7]annulen-7-yl]-3-oxa-6-azabicyclo[3.1.1]heptane], the results for the pIC50 in experiment [1] and in experiment [2] were 6.00 to 7.00 and more than 7.00, respectively.

On to `Cc1cnc(C)c(-c2ccc(-c3c[nH]c4ncc(-c5ccc6c(c5)CC[C@@](C)(N5CCC[C@H]5C)CC6)cc34)nc2)n1` [Example 68, 2,5-Dimethyl-3-(6-{5-[(7S)-7-methyl-7-[(2R)-2-methylpyrrolidin-1-yl]-6,7,8,9-tetrahydro-5H-benzo[7]annulen-2-yl]-1H-pyrrolo[2,3-b]pyridin-3-yl}pyridin-3-yl)pyrazine], for which the pIC50 in experiment [1] and in experiment [2] was more than 7.00 throughout.

`Cc1ccc(C)c(-c2ccc(-c3c[nH]c4ncc(-c5ccc6c(c5)CC[C@@H](N5C7COC[C@H]5C7)CC6)cc34)nc2)n1` [Example 142, 3,6-Dimethyl-6′-{5-[(7S)-7-[(1R)-3-oxa-6-azabicyclo[3.1.1]heptan-6-yl]-6,7,8,9-tetrahydro-5H-benzo[7]annulen-2-yl]-1H-pyrrolo[2,3-b]pyridin-3-yl}-2,3′-bipyridine]: the pIC50 in experiment [1] and in experiment [2] was more than 7.00 throughout.

For `Cc1ccc(C#N)c(-c2ccc(-c3n[nH]c4ncc(-c5ccc6c(c5)CC[C@@](C)(N5CCC[C@H]5C)CC6)cc34)cc2)n1` [Example 71, 6-Methyl-2-(4-{5-[(7S)-7-methyl-7-[(2R)-2-methylpyrrolidin-1-yl]-6,7,8,9-tetrahydro-5H-benzo[7]annulen-2-yl]-1H-pyrazolo[3,4-b]pyridin-3-yl}phenyl)pyridine-3-carbonitrile], the negative logarithm of the IC50 (pIC50) in experiment [1] and in experiment [2] was more than 7.00 each time.

As to `Cc1ccc(C(F)(F)F)nc1-c1ccc(-c2c[nH]c3ncc(-c4ccc5c(c4)CC[C@@H](N4C6COC[C@H]4C6)CC5)cc23)cc1` [Example 146, (1R)-6-[(7S)-2-(3-{4-[3-Methyl-6-(trifluoromethyl)pyridin-2-yl]phenyl}-1H-pyrrolo[2,3-b]pyridin-5-yl)-6,7,8,9-tetrahydro-5H-benzo[7]annulen-7-yl]-3-oxa-6-azabicyclo[3.1.1]heptane], the figures for the pIC50 in experiment [1] and in experiment [2] were 6.00 to 7.00 and more than 7.00, respectively.

Take `Cc1cnc(C)c(-c2ccc(-c3c[nH]c4ncc(-c5ccc6c(c5)CC[C@@H](N5C7COCC5C7)CC6)cc34)nc2)n1` [Example 69, 6-[(7S)-2-{3-[5-(3,6-Dimethylpyrazin-2-yl)pyridin-2-yl]-1H-pyrrolo[2,3-b]pyridin-5-yl}-6,7,8,9-tetrahydro-5H-benzo[7]annulen-7-yl]-3-oxa 6-azabicyclo[3.1.1]heptane]: the figures for the pIC50 in experiment [1] and in experiment [2] were 6.00 to 7.00 and more than 7.00, respectively.

For the molecule `Cc1ccc[n+]([O-])c1-c1ccc(-c2c[nH]c3ncc(-c4ccc5c(c4)CC[C@@H](N4C6COCC4C6)CC5)cc23)cc1` [Example 16, 3-Methyl-2-(4-{5-[(7S)-7-{3-oxa-6-azabicyclo[3.1.1]heptan-6-yl}-6,7,8,9-tetrahydro-5H-benzo[7]annulen-2-yl]-1H-pyrrolo[2,3-b]pyridin-3-yl}phenyl)pyridin-1-ium-1-olate], the pIC50 in experiment [1] and in experiment [2] was more than 7.00 throughout.

With `Cc1cccnc1-c1ccc(-c2n[nH]c3ncc(-c4ccc5c(c4)CCC(N4CCCC4)C5)cc23)cc1` (centres unmarked) [Example 19, 3-Methyl-2-(4-{5-[6-(pyrrolidin-1-yl)-5,6,7,8-tetrahydronaphthalen-2-yl]-1H-pyrazolo[3,4-b]pyridin-3-yl}phenyl)pyridine], the pIC50 in experiment [1] is 6.00 to 7.00; in experiment [2], more than 7.00.

Turning to `Cc1cc(F)cnc1-c1ccc(-c2c[nH]c3ncc(-c4ccc5c(c4)CC[C@@H](N4C6COCC4C6)CC5)cc23)nc1` [Example 35, 6-[(7S)-3-[3-[5-(5-Fluoro-3-methylpyridin-2-yl)pyridin-2-yl]-1H-pyrrolo[2,3-b]pyridin-5-yl]-6,7,8,9-tetrahydro-5H-benzo[7]annulen-7-yl]-3-oxa-6-azabicyclo[3.1.1]heptane], the pIC50 in experiment [1] and in experiment [2] was more than 7.00 each time.

As to `Cc1ccc(C#N)c(-c2ccc(-c3n[nH]c4ncc(-c5ccc6c(c5)CC[C@@H](N5C7COCC5C7)CC6)cc34)cc2)n1` [Example 70, 6-Methyl-2-(4-{5-[(7S)-7-{3-oxa-6-azabicyclo[3.1.1]heptan-6-yl}-6,7,8,9-tetrahydro-5H-benzo[7]annulen-2-yl]-1H-pyrazolo[3,4-b]pyridin-3-yl}phenyl)pyridine-3-carbonitrile], the pIC50 in experiment [1] and in experiment [2] was more than 7.00 each time.
